Assay results reported in patent publication US11214803B2, “Modulators of YAP1 expression” (Ionis Pharmaceuticals, Inc., priority 2019, dated 2022).
Strand notation (5' to 3'): a small letter for the sugar, then the base; units joined by * are phosphorothioate-linked, units joined directly phosphodiester-linked; [ ] holds rarer units or linkages, { } end groups; capitals alone tell only the bases. e = 2'-O-(2-methoxyethyl) (MOE); k = constrained ethyl (cEt); [5mC] = 5-methylcytosine; d = 2'-deoxy (DNA); m = 2'-O-methyl

Test system: Yap1 mRNA
Assay: Antisense inhibition of human Yap1 in SNU-449 cells by modified oligonucleotides, single dose (Example 5, RTS36584)
Format: cell-based
Conditions: Table 39; SNU-449 cells, 10,000 cells per well, free uptake, 2,000 nM oligonucleotide, approx. 48 hours; RTS36584; normalized to RIBOGREEN; Yap1 mRNA relative to untreated control
Procedure, shortened: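 SNU-449 cells (10,000/well) took up 2,000 nM oligonucleotide by free uptake for about 48 h. Yap1 mRNA was measured by qRT-PCR with primer probe set RTS36584 and normalised to RIBOGREEN total RNA. Values are % of untreated control; asterisked oligos target the amplicon region.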

In order of rising “YAP1 (% UTC)” value:
1. 1198424 (k[5mC]*dT*d[5mC]*dT*dT*dA*dT*dA*dT*dG*dG*kT*eT*kT*eT*kG; antisense) [Compound 1198424]  15 % UTC
2. 1198449 (kA*dA*dG*dT*dA*dA*dG*dG*dT*dT*dT*k[5mC]*e[5mC]*k[5mC]*eA*kG; antisense) [Compound 1198449]  37 % UTC
3. 1198390 (kA*dG*dG*dT*dA*dT*dA*dA*d[5mC]*dT*dG*kG*eG*k[5mC]*eA*kA; antisense) [Compound 1198390]  37 % UTC
4. 1198401 (kT*dT*dA*dA*dG*d[5mC]*dA*d[5mC]*dT*dT*dT*kT*eA*k[5mC]*eA*kT; antisense) [Compound 1198401]  63 % UTC

Same assay, conditions: Table 40 (separate experiment); SNU-449 cells, 10,000 cells per well, free uptake, 2,000 nM oligonucleotide, approx. 48 hours; RTS36584; normalized to RIBOGREEN; Yap1 mRNA relative to untreated control

In order of rising “YAP1 (% UTC)” value:
1. 1198441 (kA*dA*dA*dG*dT*dG*dT*dA*dT*dG*dT*k[5mC]*eA*kG*eA*kA; antisense) [Compound 1198441]  19 % UTC
2. 1198725 (kT*eA*kG*dA*dG*dT*dA*dT*dG*dT*dG*dG*e[5mC]*eA*kA*kT; antisense) [Compound 1198725]  23 % UTC
3. 1198747 (kA*eG*k[5mC]*dA*d[5mC]*dT*dT*dT*dT*dA*d[5mC]*dA*eT*eT*kA*kG; antisense) [Compound 1198747]  38 % UTC
4. 1198800 (antisense kA*e[5mC]*kT*dA*dA*dG*dT*dA*dA*dG*dG*dT*eT*eT*k[5mC]*k[5mC]) [Compound 1198800]  47 % UTC

Same assay, conditions: Table 41; SNU-449 cells, 10,000 cells per well, free uptake, 2,000 nM modified oligonucleotide, approximately 48 hours; RTS36584; normalized to RIBOGREEN; Yap1 mRNA relative to untreated control cells

In order of falling “YAP1 (% UTC)” value:
1. 1198657 (kA*kG*d[5mC]*dA*d[5mC]*dT*dT*dT*dT*dA*d[5mC]*dA*kT*eT*kA*eG; antisense) [Compound 1198657]  95 % UTC
2. 1198773 (kA*e[5mC]*kT*d[5mC]*dT*dT*dA*dT*dA*dT*dG*dG*eT*eT*kT*kT; antisense) [Compound 1198773]  58 % UTC
3. 1198631 (kA*kA*dA*dT*dT*dG*dT*d[5mC]*dT*d[5mC]*dA*dT*kG*e[5mC]*k[5mC]*eT; antisense) [Compound 1198631]  53 % UTC
4. 1198737 (k[5mC]*eT*kG*dA*dG*dG*dT*dA*dT*dA*dA*d[5mC]*eT*eG*kG*kG; antisense) [Compound 1198737]  24 % UTC

Same assay, conditions: Table 42 (separate experiment); SNU-449 cells, 10,000 cells per well, free uptake, 2,000 nM modified oligonucleotide, approximately 48 hours; RTS36584; normalized to RIBOGREEN; Yap1 mRNA relative to untreated control cells

“1198234 (kG*k[5mC]*dT*dT*dT*dG*dG*dA*dA*dG*dA*eT*e[5mC]*eT*kG*kA) [Compound 1198234]” was tested, and the “YAP1 (% UTC)” value was 45 % UTC.

Same assay, conditions: Table 43 experiment; SNU-449 cells, 10,000 cells per well, free uptake, 2,000 nM, approximately 48 hours; RTS36584; Yap1 mRNA normalized to RIBOGREEN, relative to untreated control cells

In order of rising “YAP1 (% UTC)” value:
1. 1198485 (antisense kA*kG*d[5mC]*dA*d[5mC]*dT*dT*dT*dT*dA*d[5mC]*eA*kT*eT*kA*eG) [Compound 1198485]  64 % UTC
2. 1198247 (kA*kT*dT*d[5mC]*dA*dG*dA*dT*dT*dT*dA*eG*eG*eA*kT*kG; antisense) [Compound 1198247]  99 % UTC
3. 1198262 (kT*kG*dT*dA*dA*dT*dA*dT*dT*dG*d[5mC]*eA*eA*eT*k[5mC]*kT; antisense) [Compound 1198262]  114 % UTC

Same assay, conditions: Table 44 experiment; SNU-449 cells, 10,000 cells per well, free uptake, 2,000 nM, approximately 48 hours; RTS36584; Yap1 mRNA normalized to RIBOGREEN, relative to untreated control cells

In order of falling “YAP1 (% UTC)” value:
1. 1198907 (kT*k[5mC]*dT*dA*dT*dA*dT*dT*dA*dG*dA*kG*dT*kA*dT*kG; antisense) [Compound 1198907]  74 % UTC
2. 1198486 (antisense kA*kA*dG*d[5mC]*dA*d[5mC]*dT*dT*dT*dT*dA*e[5mC]*kA*eT*kT*eA) [Compound 1198486]  39 % UTC

Same assay, conditions: Table 45; Yap1 mRNA as percent of untreated control, SNU-449 cells, single dose

In order of falling “YAP1 (% UTC)” value:
1. 1198923 (kT*kT*dG*dG*dA*dA*dG*dA*dT*d[5mC]*dT*kG*dA*kA*dA*k[5mC]; antisense) [Compound 1198923]  73 % UTC
2. 1198946 (kA*kA*d[5mC]*dT*d[5mC]*dT*dT*dA*dT*dA*dT*kG*dG*kT*dT*kT; antisense) [Compound 1198946]  72 % UTC
3. 1198936 (kA*kG*dA*dT*dT*dT*dA*dG*dG*dA*dT*kG*d[5mC]*kA*dT*kG; antisense) [Compound 1198936]  38 % UTC
4. 1198969 (kA*kA*dG*dT*dA*dA*dG*dG*dT*dT*dT*k[5mC]*d[5mC]*k[5mC]*dA*kG; antisense) [Compound 1198969]  31 % UTC

Same assay, conditions: Table 46; Yap1 mRNA as percent of untreated control, SNU-449 cells, single dose

In order of falling “YAP1 (% UT)” value:
1. 1198825 (kG*kA*dG*dG*dT*dA*dT*dA*dA*d[5mC]*dT*kG*eG*kG*e[5mC]*kA; antisense) [Compound 1198825]  64 % UT
2. 1198834 (kA*kA*dG*d[5mC]*dA*d[5mC]*dT*dT*dT*dT*dA*k[5mC]*eA*kT*eT*kA; antisense) [Compound 1198834]  54 % UT
3. 1198818 (antisense kT*kA*dT*dT*dA*dG*dA*dG*dT*dA*dT*kG*eT*kG*eG*k[5mC]) [Compound 1198818]  15 % UT

Same assay, conditions: Table 48; Yap1 mRNA level relative to untreated control; modified oligonucleotides targeting SEQ ID NO.: 1 and 2

In order of rising “YAP1 (% UT)” value:
1. 1198289 (kG*kG*kA*dA*dA*dT*dT*dG*dT*d[5mC]*dT*d[5mC]*kA*eT*kG*e[5mC]; antisense) [Compound 1198289]  12 % UT
2. 1198300 (kT*kA*kT*dA*dT*dT*dA*dG*dA*dG*dT*dA*kT*eG*kT*eG; antisense) [Compound 1198300]  60 % UT
3. 1198326 (kT*kT*kA*dG*dG*dA*dT*dG*d[5mC]*dA*dT*dG*kG*eT*kT*eT; antisense) [Compound 1198326]  84 % UT

Same assay, conditions: Table 49; Yap1 mRNA level relative to untreated control; modified oligonucleotides targeting SEQ ID NO.: 1 and 2

In order of rising “YAP1 (% UT)” value:
1. 1198574 (antisense kG*kG*kA*dA*dG*dA*dT*d[5mC]*dT*dG*dA*dA*kA*k[5mC]*kT*e[5mC]) [Compound 1198574]  37 % UT
2. 1198572 (antisense kA*kA*kG*d[5mC]*dA*d[5mC]*dT*dT*dT*dT*dA*d[5mC]*kA*kT*kT*eA) [Compound 1198572]  53 % UT
3. 1198573 (antisense kT*kT*kA*dA*dG*d[5mC]*dA*d[5mC]*dT*dT*dT*dT*kA*k[5mC]*kA*eT) [Compound 1198573]  76 % UT
4. 1198576 (antisense kT*kT*kT*dG*dG*dA*dA*dG*dA*dT*d[5mC]*dT*kG*kA*kA*eA) [Compound 1198576]  92 % UT

Same assay, conditions: Table 50; Yap1 mRNA remaining as percent of untreated control (UT), SNU-449 cells, single dose

In order of rising “YAP1 (% UT)” value:
1. 1198623 (k[5mC]*kT*kA*dA*dG*dT*dA*dA*dG*dG*dT*dT*kT*k[5mC]*k[5mC]*e[5mC]; antisense) [Compound 1198623]  9 % UT
2. 1198603 (antisense kA*kA*kT*dA*dT*dT*dG*d[5mC]*dA*dA*dT*d[5mC]*kT*kG*kT*e[5mC]) [Compound 1198603]  51 % UT
3. 1197291 (k[5mC]*kT*kT*dT*mU*dA*d[5mC]*dA*dT*dT*dA*dG*dG*kA*kA*k[5mC]; antisense) [Compound 1197291]  83 % UT
4. 1197287 (kT*kA*kT*dA*mU*dT*dA*dG*dA*dG*dT*dA*dT*kG*kT*kG) [Compound 1197287]  108 % UT

Same assay, conditions: Table 51; Yap1 mRNA remaining as percent of untreated control (UT), SNU-449 cells, single dose

In order of falling “YAP1 (% UT)” value:
1. 1197265 (kT*kA*kA*dT*mA*dT*dT*dG*d[5mC]*dA*dA*dT*d[5mC]*kT*kG*kT) [Compound 1197265]  103 % UT
2. 1197300 (kG*kA*kT*dT*mU*dA*dG*dG*dA*dT*dG*d[5mC]*dA*kT*kG*kG; antisense) [Compound 1197300]  42 % UT
3. 1200786 (kA*kA*kT*dT*dG*mU*d[5mC]*dT*d[5mC]*dA*dT*dG*d[5mC]*k[5mC]*kT*kT; antisense) [Compound 1200786]  21 % UT
4. 1197312 (kT*kG*kT*dA*mU*dG*dT*d[5mC]*dA*dG*dA*dA*dG*kA*kG*kT; antisense) [Compound 1197312]  10 % UT

Same assay, conditions: Table 52; Yap1 mRNA, modified oligonucleotides targeting SEQ ID NO: 1 and 2

In order of rising “YAP1 (% UT)” value:
1. 1200803 (kG*kG*kT*dA*dT*mA*dA*d[5mC]*dT*dG*dG*dG*d[5mC]*kA*kA*kA; antisense) [Compound 1200803]  22 % UT
2. 1200843 (kA*k[5mC]*kT*d[5mC]*dT*mU*dA*dT*dA*dT*dG*dG*dT*kT*kT*kT; antisense) [Compound 1200843]  46 % UT
3. 1200809 (k[5mC]*kA*k[5mC]*dT*dG*mA*dG*dG*dT*dA*dT*dA*dA*k[5mC]*kT*kG; antisense) [Compound 1200809]  69 % UT
4. 1200835 (k[5mC]*kA*kG*dA*dT*mU*dT*dA*dG*dG*dA*dT*dG*k[5mC]*kA*kT; antisense) [Compound 1200835]  82 % UT

Same assay, conditions: Yap1 mRNA, percent of untreated control; modified oligonucleotides targeting SEQ ID NO: 1 and 2; Table 47

In order of falling “YAP1 (% UT)” value:
1. 1198862 (kG*kA*d[5mC]*dA*dA*d[5mC]*dT*d[5mC]*dT*dT*dA*kT*eA*kT*eG*kG; antisense) [Compound 1198862]  72 % UT
2. 1197222 (antisense kA*kA*kG*dT*dA*dA*dG*dG*dT*dT*dT*d[5mC]*d[5mC]*k[5mC]*kA*kG) [Compound 1197222]  40 % UT
3. 1197187 (antisense kG*kG*kA*dA*dG*dA*dT*d[5mC]*dT*dG*dA*dA*dA*k[5mC]*kT*k[5mC]) [Compound 1197187]  24 % UT
4. 1074799 (kT*kG*k[5mC]*dT*dT*dT*dG*dG*dA*dA*dG*dA*dT*k[5mC]*kT*kG) [Compound 1074799]  21 % UT
